# Assay results taken from PubChem BioAssay (NCI).
#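 Briefly, cells in 96-well plates were exposed to five compound concentrations for 48 h, and endpoints were estimated by linear interpolation. GI50 is the concentration that inhibits growth by half. TGI: total growth inhibition.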
# Key:
# Assay in all cases: DTP human tumour cell line panel, 48 h
# [1] = system: NCI-H23 lung
# [2] = system: NCI-H460 lung
# [3] = system: NCI-H522 lung
# [4] = system: NCI/ADR-RES ovarian
# [5] = system: OVCAR-4 ovarian
# [6] = system: OVCAR-5 ovarian
# [7] = system: OVCAR-8 ovarian
# [8] = system: PC-3 prostate
# [9] = system: RPMI-8226 leukemia
# [10] = system: RXF 393 renal
# [11] = system: SF-268 CNS
# [12] = system: SF-295 CNS
# [13] = system: SF-539 CNS
# [14] = system: SK-MEL-2 melanoma
# [15] = system: SK-MEL-28 melanoma
# [16] = system: SK-MEL-5 melanoma
# [17] = system: SK-OV-3 ovarian
# [18] = system: SN12C renal
# [19] = system: SNB-19 CNS
# [20] = system: SNB-75 CNS
# [21] = system: SR leukemia
# [22] = system: SW-620 colon
# [23] = system: T-47D breast
# [24] = system: TK-10 renal
# [25] = system: U251 CNS
# [26] = system: UACC-257 melanoma
# [27] = system: UACC-62 melanoma
# [28] = system: UO-31 renal
smiles,measurement,setting,value
O=c1c2cc(-c3ccc(F)cc3F)ccc2n(O)c(=O)n1-c1cccc(C(F)(F)F)c1,TGI,[1],5.3 µM
same,GI50,[2],0.668 µM
same,TGI,[2],5.23 µM
same,GI50,[3],0.369 µM
same,TGI,[3],2.55 µM
same,GI50,[4],1.17 µM
same,TGI,[4],10.5 µM
same,GI50,[5],2.19 µM
same,TGI,[5],> 100 µM
same,GI50,[6],3.38 µM
same,TGI,[6],92.9 µM
same,GI50,[7],1.08 µM
same,TGI,[7],8.89 µM
same,GI50,[8],1.8 µM
same,TGI,[8],6.95 µM
same,GI50,[9],1.02 µM
same,TGI,[9],5.85 µM
same,GI50,[10],1.05 µM
same,TGI,[10],3.14 µM
same,GI50,[11],1.75 µM
same,TGI,[11],15.5 µM
same,GI50,[12],1.65 µM
same,TGI,[12],3.45 µM
same,GI50,[13],1.47 µM
same,TGI,[13],7.94 µM
same,GI50,[14],0.534 µM
same,TGI,[14],2.29 µM
same,GI50,[15],1.26 µM
same,TGI,[15],10 µM
same,GI50,[16],0.263 µM
same,TGI,[16],0.708 µM
same,GI50,[17],1.13 µM
same,TGI,[17],3.88 µM
same,GI50,[18],0.683 µM
same,TGI,[18],5.41 µM
same,GI50,[19],0.682 µM
same,TGI,[19],> 100 µM
same,GI50,[20],1.51 µM
same,TGI,[20],6.45 µM
same,GI50,[21],0.259 µM
same,TGI,[21],1.88 µM
same,GI50,[22],2.05 µM
same,TGI,[22],10.5 µM
same,GI50,[23],1.49 µM
same,TGI,[23],5.76 µM
same,GI50,[24],4.19 µM
same,TGI,[24],9.17 µM
same,GI50,[25],1.86 µM
same,TGI,[25],15.7 µM
same,GI50,[26],1.01 µM
same,TGI,[26],4.48 µM
same,GI50,[27],0.323 µM
same,TGI,[27],1.31 µM
same,GI50,[28],2.23 µM
same,TGI,[28],9.3 µM
